# Assays:
# mice [1] = assay: Open-field test; format: in vivo; settings: 2b 0.01 mg/kg, 3c 5 mg/kg, i.p.
# Method: (§1) The ability of effective doses of bisuracil 2b (0.01 mg/kg) and bisuracil 3c (5 mg/kg) to induce incapacitation was evaluated. Locomotor activity, measured as the total distance travelled, and exploratory behaviour, assessed by the number of rearings (head inclinations) and head dips, were evaluated using the open-field test. Additionally, motor coordination was analysed using the rotarod test, where the ability of mice to stay on the rotating rod was recorded. The compounds were administered i.p. 30 min before testing, while the control group received an equivalent volume of the vehicle.
# (§2) To analyse motor function, rotarod and open-field tests were carried out. Mice were randomly divided into 3 groups (n = 12): a control group of mice and groups of mice treated with tested compounds. Tests were conducted 1 h after compound exposure. To assess motor function, mice were first placed on a rotarod treadmill (Ugo Basile, Italy). Rotation speed was fixed at 15 rpm, and the time that each mouse remained on the rod was recorded as the score, with a maximum duration of 300 s per trial. Each mouse underwent 3 trials. After recording the length of time that mice managed to remain on the rotarod (latency to fall), the average of three trials was used for further analysis. Following the rotarod test, motor function was studied in an open field apparatus (Open Science, Krasnogorsk, Russia), as described in [39]. The numbers of rearing and head dips were estimated as indexes of exploratory activity. To assess motor function, the distance travelled in centimetres in the arena was measured, using VideoMot2 software (Version 8.02 (131) 03-07-17 (TSE Systems, Bad Homburg, Germany).
# mice [2] = assay: Rotarod test; format: in vivo; settings: 3c 5 mg/kg i.p.; control 154 ± 20 s, p = 0.137
# Method: as §1
# as §2, with “After recording the length of time that mice managed to remain on the rotarod (latency to fall), the average of three trials was used for further analysis. Following the rotarod test, motor function was studied in an open field apparatus (Open Science, Krasnogorsk, Russia), as described in [39]. The numbers of rearing and head dips were estimated as indexes of exploratory activity.” left out
# brain AChE = target: T1, brain AChE (Mus musculus, UniProt P21836); assay: Brain AChE inhibition in vivo; parameters: species or system mice; settings: ip
# T1 construct: Whole-brain homogenates were prepared in a Potter homogeniser; from tissue; host or cells: whole brain of CD-1 mice
# T1 sequence (P21836 32-614): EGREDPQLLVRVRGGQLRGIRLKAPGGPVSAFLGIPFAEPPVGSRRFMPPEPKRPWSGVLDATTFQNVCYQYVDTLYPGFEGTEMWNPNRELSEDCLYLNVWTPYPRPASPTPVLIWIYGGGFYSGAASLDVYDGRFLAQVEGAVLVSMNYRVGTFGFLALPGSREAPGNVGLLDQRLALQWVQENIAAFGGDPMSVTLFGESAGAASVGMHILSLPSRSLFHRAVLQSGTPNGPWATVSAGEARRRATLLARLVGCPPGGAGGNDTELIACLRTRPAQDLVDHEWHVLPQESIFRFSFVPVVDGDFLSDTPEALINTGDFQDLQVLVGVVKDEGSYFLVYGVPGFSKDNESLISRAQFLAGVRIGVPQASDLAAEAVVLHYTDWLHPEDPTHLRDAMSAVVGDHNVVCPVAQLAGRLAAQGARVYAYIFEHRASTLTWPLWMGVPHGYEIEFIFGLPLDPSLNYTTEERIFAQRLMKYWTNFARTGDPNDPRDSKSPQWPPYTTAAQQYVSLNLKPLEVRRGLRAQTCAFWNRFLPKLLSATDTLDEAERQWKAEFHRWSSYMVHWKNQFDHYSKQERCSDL
# Method: Bisuracil 3c was identified as the most promising for the inhibition of brain AChE in vivo. […].
# For the brain AChE inhibition assay, the brains of mice were removed 30 min after i.p. injection of the tested compound (experimental group, n = 6 mice) or following i.p. vehicle injection (control group, n = 6 mice). The brains were subsequently frozen in liquid nitrogen. Whole-brain homogenates were prepared in a Potter homogeniser with 0.05 M Tris–HCl, 1% Triton X–100, 1M NaCl, and 2 mM ethylenediaminetetraacetic acid (pH 7.0; 4 °C; 1 part brain to 2 parts of buffer). The homogenate was centrifuged (14,000× g rpm; t = 4 °C) for 10 min using an Eppendorf 5430R centrifuge with an FA–45–30–11 rotor (Eppendorf AG, Hamburg, Germany). AChE activity in brain homogenates was measured using the method described by Dingova et al. with modification. […] The production of yellow 5–thio–2–nitro–benzoate anion resulting from the reduction of DTNB by thiocholine (the product of enzymatic hydrolysis of ATCH) was measured spectrophotometrically using a Shimadzu UV-1800 spectrophotometer (Shimadzu Co., Kyoto, Japan) according to Ellman’s method. The rate of thiocholine production over 20 min (from 10 to 30 min) was calculated. […] AChE activity was expressed in relation to the amount of total protein, which was determined by the Bradford method.
# human BuChE = target: T2, human BuChE (Homo sapiens, UniProt P06276); assay: Inhibition constants (Dixon and Cornish–Bowden plots), BuChE; format: biochemical
# T2 construct: butyrylcholiesterase from human plasma; purchased Sigma-Aldrich; host or cells: human plasma
# Method: Experiments were performed using four different concentrations of ATCh as a substrate for AChE, and with BuTCh as a substrate for BuChE. According to the analysis of Dixon and Cornish–Bowden plots for bisuracil 2b, AChE and BuChE inhibition is of a mixed type characterised both by competitive inhibition (Kci) and uncompetitive inhibition (Kui) components. For AChE, Kci was determined to be 55.7 ± 8.1 pM while Kui = 156 ± 18 pM (Figure 3A,B), and Kci = 0.13 ± 0.02 mM while Kui = 0.7 ± 0.06 mM for BuChE (Figure 3C,D). Inhibition of AChE and BuChE by bisuracil 3c was of a mixed type. For the AChE constant, Kci was 0.7 ± 0.04 nM while Kui 4.45 ± 1.76 nM (Figure 4A,B); for the BuChE constant, Kci = 0.04 ± 0.007 мM while Kui = 0.68 ± 0.08 мM (Figure 4C,D).
# A UV-1800 Shimadzu (Shimadzu Co., Kyoto, Japan) spectrophotometer was utilised to conduct the measurements. The final enzyme concentration in the assays was in the picomolar range. In order to ascertain the levels of spontaneous hydrolysis of the enzyme and substrate in the absence of an inhibitor, controls were performed for each substrate concentration. The change in absorption was then recorded over a period of three minutes. The inhibition constants were determined from a Dixon plot and Cornish–Bowden transformation.
# T2 sequence (P06276 29-602): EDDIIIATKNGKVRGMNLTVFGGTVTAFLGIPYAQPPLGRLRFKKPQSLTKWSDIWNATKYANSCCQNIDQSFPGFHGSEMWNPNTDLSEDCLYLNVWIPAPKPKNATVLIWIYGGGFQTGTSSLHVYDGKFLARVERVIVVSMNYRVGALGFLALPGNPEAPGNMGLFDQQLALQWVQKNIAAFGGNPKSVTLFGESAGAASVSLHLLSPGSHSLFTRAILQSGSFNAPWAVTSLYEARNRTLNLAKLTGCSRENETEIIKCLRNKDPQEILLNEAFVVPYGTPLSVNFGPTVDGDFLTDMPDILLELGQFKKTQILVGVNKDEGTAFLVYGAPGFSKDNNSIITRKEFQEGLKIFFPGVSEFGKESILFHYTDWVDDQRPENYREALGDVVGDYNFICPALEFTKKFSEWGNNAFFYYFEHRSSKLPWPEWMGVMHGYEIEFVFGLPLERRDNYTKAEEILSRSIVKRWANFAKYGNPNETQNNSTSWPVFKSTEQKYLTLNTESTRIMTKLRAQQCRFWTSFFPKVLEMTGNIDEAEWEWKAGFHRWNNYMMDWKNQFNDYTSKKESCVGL
smiles,measurement,setting,value
CCN(CCCCCn1c(=O)ccn(CCCCCn2c(C)cc(=O)n(C)c2=O)c1=O)Cc1ccccc1C#N [3c],distance travelled (open field) vs control group,mice [1],no significant differences
same,number of rearings or head dips (open field),mice [1],neither of the tested compounds significantly influenced
same,mean fall time (rotarod),mice [2],170 ± 19 s
same,inhibition at 5 mg/kg,brain AChE,14.9 ± 3.8%
same,inhibition at 10 mg/kg,brain AChE,54.2 ± 6.6%
same,"Kui (uncompetitive inhibition constant), BuChE",human BuChE; BuTCh as substrate,0.68 ± 0.08 мM
same,Ki,"human BuChE; BuTCh as substrate, read-out: Kci (competitive inhibition constant), BuChE",40 ± 7 µM
same,type of BuChE inhibition,human BuChE; Dixon and Cornish–Bowden plots,mixed type
